Measured values from patent US20030186355A1, “Methods for selecting and producing t cell peptide epitopes and vaccines incorporating said selected epitopes” (priority 2000, published 2003).
Like-named read-outs stand apart in the source and are kept apart here.

What was measured:
[1] = system: TAP; conditions: previous study, Neisig et al., 1995; cited from earlier work
[2] = system: TAP; test: TAP translocation of peptides into the endoplasmic reticulum; type: biochemical
[3] = system: T2 cells; test: 51Cr cytotoxicity assay with peptide pulsed targets; type: cell-based, human; conditions: targets pulsed at high peptide concentrations
Experimental: CTL activity was measured in a standard chromium release assay. Briefly, after ^51Cr labeling, target cells were pulsed with the designated peptide concentrations for 30 min or longer at 37° C. Target cells were added to various number of effector cells in a final volume of 100 μl complete culture medium in 96-well-U-bottom plates. After 4 h incubation at 37° C. supernatants were harvested.

Row | Sequence | translocation by TAP into the ER [1] | translocation by TAP into the ER [2] | further results
1 | FAPGNYPAL | not efficiently translocated | – | –
2 | FNKSPWFTTL [proteasome fragment of MCF substrate, 10-mer] | – | efficiently translocated | –
3 | FNKSPWFTTLI [proteasome fragment of MCF substrate, 11-mer] | – | efficiently translocated | –
4 | GEFAPGNYPAL [proteasome fragment of Sendai substrate, N-terminally elongated 11-mer] | most efficiently translocated length variant | – | –
5 | KSPWFTTL | not translocated by TAP at all | – | –
6 | LYVDSLFFL [PRAME aa; 301-309, naturally presented in HLA-A24] | – | – | lysis of peptide pulsed targets by CTL clones [3]: very low crossreactivity
7 | PSSSWDFITVD [peptide fragment said to be generated by FBL-3 cells] | – | completely abolishes TAP translocation | –
